Legend:
HEK293 [1] = assay: Antiproliferative activity against HEK293 cells after 48 hrs by MTT assay; format: cell-based; conditions: Homo sapiens, HEK293, 48 h
cells = conditions: Homo sapiens, HL-60, 48 h
Description: Antiproliferative activity against human HL60 cells after 48 hrs by MTT assay

HEK293 [2] = assay: Selectivity index, ratio of IC50 for HEK293 cells to IC50 for human HL60 cells; format: functional
[3] = Antiproliferative activity against human SVGp12 cells after 48 hrs by MTT assay; format: cell-based; conditions: SVGp12, 48 h
[4] = Antiproliferative activity against human LN18 cells after 48 hrs by MTT assay; format: functional, cell-based; conditions: LN-18, 48 h
[5] = Selectivity index, ratio of IC50 for human SVGp12 cells to IC50 for human LN18 cells; format: functional
[6] = Antiproliferative activity against human THP1 cells after 48 hrs by MTT assay; format: functional, cell-based; conditions: THP-1, 48 h

SMILES	IC50 (HEK293 [1])	IC50 (cells)	Ratio IC50 (HEK293 [2])	IC50 [3]	IC50 [4]	Ratio IC50 [5]	IC50 [6]
CCCCCCCCCCCCCCCCN(CC[C@H](O)[C@H](O)CO)CC[C@H](O)[C@H](O)CO	31.1 µM	6.44 µM	4.83	26.6 µM	30.5 µM	0.872	
OC[C@@H](O)[C@@H](O)[C@H](O)[C@@H](O)CN(CCc1ccccc1)C[C@H](O)[C@@H](O)[C@H](O)[C@H](O)CO		91.3 µM		212 µM	290 µM	0.731	
COc1cccc2c1C(=O)c1c(O)c3c(c(O)c1C2=O)C[C@@](O)(C(=O)CO)C[C@@H]3O[C@H]1C[C@H](N)[C@H](O)[C@H](C)O1 [DOXORUBICIN]	44.4 µM	5.5 µM		4.21 µM	68.9 µM		7.19 µM
C[S+](C)[O-] [DIMETHYL SULFOXIDE]	232 µM	108 µM	2.15	229 µM	223 µM	1.03	119 µM
OC[C@@H](O)[C@H](O)[C@@H](O)CN(CCc1ccccc1)C[C@H](O)[C@@H](O)[C@H](O)CO	215 µM	136 µM	1.58		255 µM		
OC[C@@H](O)[C@@H](O)[C@@H](O)CN(CCc1ccccc1)C[C@H](O)[C@H](O)[C@H](O)CO		89.4 µM			205 µM		
OC[C@@H](O)[C@@H](O)[C@H](O)CN(CCc1ccccc1)C[C@@H](O)[C@H](O)[C@H](O)CO	230 µM	121 µM	1.9	222 µM	257 µM	0.864	
CCCCCCCCCCCCCCCCN(CC[C@@H](O)[C@H](O)[C@H](O)CO)CC[C@@H](O)[C@H](O)[C@H](O)CO		6.66 µM			50.6 µM		

From ChEMBL document CHEMBL3822437, “N,N-Bis(glycityl)amines as anti-cancer drugs” (Bioorg Med Chem, 2016)
